In the NIST ThermoML archive (doi:10.1016/j.jct.2014.02.016):
± gives the expanded uncertainty stated by the source.

Test: refractive index (other wavelength) (dimensionless)
Conditions: 100 kPa, Liquid, Wavelength=632.8 nm, Angle minimization by sell rotation

SMILES: CCCCCCCCCCCCC [tridecane]
- refractive index (294.14 K): 1.4241 ± 0.0003
- refractive index (295.15 K): 1.4236 ± 0.0003
- refractive index (296.18 K): 1.4232 ± 0.0003
- refractive index (297.23 K): 1.4227 ± 0.0003
- refractive index (299.35 K): 1.4218 ± 0.0003
- refractive index (300.44 K): 1.4213 ± 0.0003
- refractive index (302.44 K): 1.4204 ± 0.0003
- refractive index (303.67 K): 1.4199 ± 0.0003
- refractive index (304.45 K): 1.4196 ± 0.0003

SMILES: CCCCCCCCCCC [undecane]
- refractive index (293.4 K): 1.4162 ± 0.0003
- refractive index (294.3 K): 1.4157 ± 0.0003
- refractive index (295.27 K): 1.4152 ± 0.0003
- refractive index (296.26 K): 1.4148 ± 0.0003
- refractive index (297.25 K): 1.4144 ± 0.0003
- refractive index (298.27 K): 1.4139 ± 0.0003
- refractive index (299.34 K): 1.4134 ± 0.0003
- refractive index (300.31 K): 1.413 ± 0.0003
- refractive index (301.27 K): 1.4126 ± 0.0003

SMILES: COC(=O)OC [dimethyl carbonate]
- refractive index (293.16 K): 1.3678 ± 0.0003
- refractive index (294.29 K): 1.3673 ± 0.0003
- refractive index (295.28 K): 1.3669 ± 0.0003
- refractive index (296.28 K): 1.3663 ± 0.0003
- refractive index (297.28 K): 1.3659 ± 0.0003
- refractive index (298.3 K): 1.3654 ± 0.0003
- refractive index (300.3 K): 1.3644 ± 0.0003
- refractive index (302.3 K): 1.3635 ± 0.0003
- refractive index (303.4 K): 1.363 ± 0.0003
